Laboratory results published in US4472383A, “Peptide derivatives, their production and use” (Takeda Chemical Industries, Ltd., priority 1982, dated 1984).

System: Hypertensive Activity of Angiotensin I
Assay: Effect against hypertensive activity of angiotensin I in anesthetized-prepared rats (oral administration)
Format: in vivo, Male rats (Sprague-Dawley)
Details: rat, 13.8 μM/kg orally, angiotensin I 300 ng/kg i.v., corrected for angiotensin II response; for Percent Inhibition (%) against Hypertensive Reaction by Angiotensin I After 20 min.: 20 min after administration; for Percent Inhibition (%) against Hypertensive Reaction by Angiotensin I After 60 min.: 60 min after administration; for Percent Inhibition (%) against Hypertensive Reaction by Angiotensin I After 120 min.: 120 min after administration
Method: Effect of Present Compounds against Hypertensive Activity of Angiotensin I Male rats (Sprague-Dawley) weighing 250 g to 350 g which were fed under free access to drinking water and feeds were used as experimental animals. The rats were anesthetized with intraperitoneal administration of pentobarbital sodium (50 mg/kg) on the day before the test day and a polyethylene tube was inserted into each of the femoral artery for measurement of blood pressure and the femoral vein for injection of angiotensin I and II, and then the tubes were fixed. […] Then, 13.8 μM/kg of the compound of this invention was administered orally as an aqueous solution or an aqueous gum arabic suspension, and 20, 60 and 120 minutes after the administration, angiotensin I and II were injected repeatedly to trace hypertensive reactions. In calculating the percent inhibition to the hypertensive activity of angiotensin I, the percent inhibitory value was corrected based on the variation with time in the hypertensive reaction by angiotensin II.

SMILES	Percent Inhibition (%) against Hypertensive Reaction by Angiotensin I After 20 min. [%]	Percent Inhibition (%) against Hypertensive Reaction by Angiotensin I After 60 min. [%]	Percent Inhibition (%) against Hypertensive Reaction by Angiotensin I After 120 min. [%]
CCCCOC(=O)[C@H](CCc1ccccc1)N[C@@H](C)C(=O)N(CC(=O)N[C@@H](Cc1ccccc1)C(=O)O)C1CCCC1.Cl [Example 6, N-[1(S)-butoxycarbonyl-3-phenylpropyl]-L-alanyl-N-cyclopentylglycyl-L-phenylalanine hydrochloride]	72	84	72
Br.CCOC(=O)[C@H](CCc1ccccc1)N[C@@H](C)C(=O)N(CC(=O)N[C@@H](Cc1ccccc1)C(=O)O)C1Cc2ccccc2C1 [Example 3, N-[1(S)-ethoxycarbonyl-3-phenylpropyl]-L-alanyl-N-(2-indanyl)glycyl-L-phenylalanine hydrobromide]	67	73	77
